Literature values, collected in patent publication US12324861B2, “Beaded nonwoven membrane as a drug delivery system” (CEBIOTEX, S.L., priority 2018, dated 2025).

How the values were obtained:
[1] = nude mice
[2] = systemic administration in patients

CCc1c2c(nc3ccc(OC(=O)N4CCC(N5CCCCC5)CC4)cc13)-c1cc3c(c(=O)n1C2)COC(=O)[C@]3(O)CC [Irinotecan]
conversion to SN-38 [1]: > 70% | conversion into the active derivative (SN-38) [2]: less than 10%
